Like-named read-outs stand apart in the source and are kept apart here.
Experiments:
VIM-1 = VIM-1 (Pseudomonas aeruginosa (strain ATCC 15692 / DSM 22644 / CIP 104116 / JCM 14847 / LMG 12228 / 1C / PRS 101 / PAO1), UniProt A0A0F7KYQ8); assay: biochemical; details: CCF2-FA substrate, 30 pM enzyme, 2 hours at 25° C.
Summary of the method: (§1)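 IC50 values derive from 4-parameter fits of percent inhibition against inhibitor concentration on semi-log axes. Activity was monitored by fluorescence with the CCF2-FA substrate after a 2-hour, 25° C incubation of compound, enzyme and substrate.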

IMP-1 = IMP-1 (Serratia marcescens, UniProt P52699); assay: biochemical; type: biochemical; details: fluorescence assay, CCF2-FA substrate, 2 pM enzyme, 2 hours at 25° C.; read-out: IMP-1 IC50
IMP-1, sequence (P52699 whole entry, looked up, species assumed): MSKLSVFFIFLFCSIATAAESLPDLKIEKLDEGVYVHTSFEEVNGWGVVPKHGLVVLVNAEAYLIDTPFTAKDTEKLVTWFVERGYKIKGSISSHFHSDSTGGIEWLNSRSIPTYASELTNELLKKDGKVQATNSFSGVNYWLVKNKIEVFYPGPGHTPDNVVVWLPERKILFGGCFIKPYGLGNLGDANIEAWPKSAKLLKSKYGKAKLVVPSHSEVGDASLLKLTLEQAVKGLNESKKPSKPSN
Summary of the method: as §1

NDM-1 = NDM-1 (Klebsiella pneumoniae, UniProt C7C422); assay: biochemical; type: biochemical; details: fluorescence assay, CCF2-FA substrate, 1 pM enzyme, 2 hours at 25° C.; read-out: NDM-1 IC50
NDM-1, sequence (C7C422 whole entry, looked up, species assumed): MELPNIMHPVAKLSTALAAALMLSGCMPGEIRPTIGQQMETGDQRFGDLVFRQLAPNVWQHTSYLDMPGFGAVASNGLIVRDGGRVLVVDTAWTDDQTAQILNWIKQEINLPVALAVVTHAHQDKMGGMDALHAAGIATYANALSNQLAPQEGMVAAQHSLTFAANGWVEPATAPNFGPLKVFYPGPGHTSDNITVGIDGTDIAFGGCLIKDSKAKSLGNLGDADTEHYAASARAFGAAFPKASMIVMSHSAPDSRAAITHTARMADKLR
Summary of the method: as §1

[1] = system: Pseudomonas aeruginosa efflux+ (MB9798), IMP-1; type: cell-based; details: concentration restoring susceptibility to imipenem at 2 μg/mL in the presence of a class A, C, D serine β-lactamase inhibitor closely related to relebactam
Summary of the method: (§2)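 Microbroth MIC tests in PAO1-background strains with fixed imipenem and/or ceftazidime, usually at the CLSI breakpoint, plus fixed class A/C β-lactamase inhibitor against AmpC. MBL inhibitor titrated; concentration restoring susceptibility recorded and compared as fold difference between efflux+ MB9798 and efflux− MB9799.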

[2] = system: Pseudomonas aeruginosa MB9798 vs MB9799; details: ratio MITC95 PA_9798/MITC95 PA_9799
Summary of the method: as §2

[3] = system: Serratia marcescens expressing IMP-1 (CL5741); type: cell-based; details: with imipenem 1 μg/ml; 95% inhibition of bacterial growth
Summary of the method: (§3)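 Clinical strains grown overnight on blood agar at 35°C, colonies suspended in saline, diluted 1:100 into 1.1×CAMHB. Test compound titrated with imipenem at 1 μg/ml; incubated 22–24 h at 35°C, growth read by absorbance.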

[4] = system: Klebsiella pneumoniae expressing VIM-1 (IHMA599644); type: cell-based; details: with imipenem 1 μg/ml; 95% inhibition of bacterial growth
Summary of the method: as §3

[5] = system: Escherichia coli expressing NDM-1 (CLB30005, CLB30016); type: cell-based; details: with imipenem 1 μg/ml; 95% inhibition of bacterial growth
Summary of the method: as §3

[6] = system: Pseudomonas aeruginosa efflux− (MB9799), IMP-1; type: cell-based; details: concentration restoring susceptibility to imipenem at 2 μg/mL in the presence of a class A, C, D serine β-lactamase inhibitor closely related to relebactam
Summary of the method: as §2

[7] = fluorescence assay, read-out: VIM-1 IC50

Structure (SMILES): NCC(CN)NS(=O)(=O)c1ccc(-c2cccc(-c3nc[nH]n3)c2)c(-c2nn[nH]n2)c1S(N)(=O)=O [Example 227, N4-(1,3-diaminopropan-2-yl)-2-(2H-tetrazol-5-yl)-3′-(1H-1,2,4-triazol-3-yl)-[1,1′-biphenyl]-3,4-disulfonamide]
- IC50 (VIM-1; [7]): 0.137 nM
- IC50 (IMP-1): 0.165 nM
- IC50 (NDM-1): 0.048 nM
- P. aeruginosa expressing IMP-1, efflux + (MB9798) MITC95 [1]: 1.563 µM
- Efflux ratio [2]: 1.00
- Serratia marcescens expressing IMP-1 (CL5741) MITC95 [3]: 1.563 µM
- Klebsiella pneumoniae expressing VIM-1 (IHMA599644) MITC95 [4]: 3.125 µM
- Escherichia coli expressing NDM-1 (CLB30016) MITC95 [5]: 1.563 µM
- P. aeruginosa expressing IMP-1, efflux − (MB9799) MITC95 [6]: 1.563 µM

Structure (SMILES): NCCNS(=O)(=O)c1ccc(-c2cccc(-c3n[nH]c(N)n3)c2)c(-c2nn[nH]n2)c1S(N)(=O)=O [Example 228, 3′-(5-amino-1H-1,2,4-triazol-3-yl)-N4-(2-aminoethyl)-2-(2H-tetrazol-5-yl)-[1,1′-biphenyl]-3,4-disulfonamide]
- IC50 (VIM-1; [7]): 0.15 nM
- IC50 (IMP-1): 0.562 nM
- IC50 (NDM-1): 0.0864 nM
- P. aeruginosa expressing IMP-1, efflux + (MB9798) MITC95 [1]: 1.563 µM
- Efflux ratio [2]: 1.00
- Serratia marcescens expressing IMP-1 (CL5741) MITC95 [3]: 1.563 µM
- Klebsiella pneumoniae expressing VIM-1 (IHMA599644) MITC95 [4]: 3.125 µM
- Escherichia coli expressing NDM-1 (CLB30016) MITC95 [5]: 0.7813 µM
- P. aeruginosa expressing IMP-1, efflux − (MB9799) MITC95 [6]: 1.563 µM

Structure (SMILES): NCC(CN)NS(=O)(=O)c1ccc(-c2cccc(C3N=NC(N)=N3)c2)c(-c2nn[nH]n2)c1S(N)(=O)=O (stereo not drawn) [Example 229, 3′-(5-amino-3H-1,2,4-triazol-3-yl)-N4-(1,3-diaminopropan-2-yl)-2-(2H-tetrazol-5-yl)-[1,1′-biphenyl]-3,4-disulfonamide]
- IC50 (VIM-1; [7]): 0.12 nM
- IC50 (IMP-1): 0.173 nM
- IC50 (NDM-1): 0.0308 nM
- P. aeruginosa expressing IMP-1, efflux + (MB9798) MITC95 [1]: 1.563 µM
- Efflux ratio [2]: 0.50
- Serratia marcescens expressing IMP-1 (CL5741) MITC95 [3]: 3.125 µM
- Klebsiella pneumoniae expressing VIM-1 (IHMA599644) MITC95 [4]: 3.125 µM
- Escherichia coli expressing NDM-1 (CLB30016) MITC95 [5]: 0.7813 µM
- P. aeruginosa expressing IMP-1, efflux − (MB9799) MITC95 [6]: 3.125 µM

Structure (SMILES): NC[C@@H](N)CNS(=O)(=O)c1ccc(-c2cccc(-c3n[nH]c(N)n3)c2)c(-c2nn[nH]n2)c1S(N)(=O)=O [Example 230, (R)-3′-(5-amino-1H-1,2,4-triazol-3-yl)-N4-(2,3-diaminopropyl)-2-(2H-tetrazol-5-yl)-[1,1′-biphenyl]-3,4-disulfonamide]
- IC50 (VIM-1; [7]): 0.199 nM
- IC50 (IMP-1): 0.357 nM
- IC50 (NDM-1): 0.0593 nM
- P. aeruginosa expressing IMP-1, efflux + (MB9798) MITC95 [1]: 1.563 µM
- Efflux ratio [2]: 1.00
- Serratia marcescens expressing IMP-1 (CL5741) MITC95 [3]: 1.563 µM
- Klebsiella pneumoniae expressing VIM-1 (IHMA599644) MITC95 [4]: 3.125 µM
- Escherichia coli expressing NDM-1 (CLB30016) MITC95 [5]: 1.563 µM
- P. aeruginosa expressing IMP-1, efflux − (MB9799) MITC95 [6]: 1.563 µM

Structure (SMILES): Nc1nc(-c2cccc(-c3ccc(S(=O)(=O)N[C@@H]4CCNC4)c(S(N)(=O)=O)c3-c3nn[nH]n3)c2)n[nH]1 [Example 231, (R)-3′-(5-amino-1H-1,2,4-triazol-3-yl)-N4-(pyrrolidin-3-yl)-2-(2H-tetrazol-5-yl)-[1,1′-biphenyl]-3,4-disulfonamide]
- IC50 (VIM-1; [7]): 0.115 nM
- IC50 (IMP-1): 0.376 nM
- IC50 (NDM-1): 0.0288 nM
- P. aeruginosa expressing IMP-1, efflux + (MB9798) MITC95 [1]: 1.563 µM
- Efflux ratio [2]: 1.00
- Serratia marcescens expressing IMP-1 (CL5741) MITC95 [3]: 1.563 µM
- Klebsiella pneumoniae expressing VIM-1 (IHMA599644) MITC95 [4]: 3.125 µM
- Escherichia coli expressing NDM-1 (CLB30016) MITC95 [5]: 1.563 µM
- P. aeruginosa expressing IMP-1, efflux − (MB9799) MITC95 [6]: 1.563 µM

Structure (SMILES): CN1CC[C@@H](NS(=O)(=O)c2ccc(-c3cccc4[nH]c(N)nc34)c(-c3nn[nH]n3)c2S(N)(=O)=O)C1 [Example 232, (R)-4-(2-amino-1H-benzo[d]imidazol-4-yl)-N^1-(1-methylpyrrolidin-3-yl)-3-(2H-tetrazol-5-yl)benzene-1,2-disulfonamide]
- IC50 (VIM-1; VIM-1 IC50, fluorescence assay): 0.16 nM
- IC50 (IMP-1): 0.609 nM
- IC50 (NDM-1): 0.0505 nM
- P. aeruginosa expressing IMP-1, efflux + (MB9798) MITC95 [1]: 1.563 µM
- Efflux ratio [2]: 2.00
- Serratia marcescens expressing IMP-1 (CL5741) MITC95 [3]: 0.7813 µM
- Klebsiella pneumoniae expressing VIM-1 (IHMA599644) MITC95 [4]: 1.563 µM
- Escherichia coli expressing NDM-1 (CLB30016) MITC95 [5]: 0.3906 µM
- P. aeruginosa expressing IMP-1, efflux − (MB9799) MITC95 [6]: 0.7813 µM

Structure (SMILES): Nc1nc2c(-c3ccc(S(=O)(=O)N[C@@H]4CCNC4)c(S(N)(=O)=O)c3-c3nn[nH]n3)cc(I)cc2[nH]1 [Example 234, (R)-4-(2-amino-6-iodo-1H-benzo[d]imidazol-4-yl)-N^1-(pyrrolidin-3-yl)-3-(2H-tetrazol-5-yl)benzene-1,2-disulfonamide]
- IC50 (VIM-1; [7]): 0.0829 nM
- IC50 (IMP-1): 0.14 nM
- IC50 (NDM-1): 0.0157 nM
- P. aeruginosa expressing IMP-1, efflux + (MB9798) MITC95 [1]: 0.7813 µM
- Efflux ratio [2]: 1.00
- Serratia marcescens expressing IMP-1 (CL5741) MITC95 [3]: 0.7813 µM
- Klebsiella pneumoniae expressing VIM-1 (IHMA599644) MITC95 [4]: 0.7813 µM
- Escherichia coli expressing NDM-1 (CLB30016) MITC95 [5]: 0.7813 µM
- P. aeruginosa expressing IMP-1, efflux − (MB9799) MITC95 [6]: 0.7813 µM

Structure (SMILES): NS(=O)(=O)c1c(S(=O)(=O)N[C@@H]2CCNC2)ccc(-c2cccc3[nH]nnc23)c1-c1nn[nH]n1 [Example 235, (R)-4-(1H-benzo[d][1,2,3]triazol-4-yl)-N^1-(pyrrolidin-3-yl)-3-(2H-tetrazol-5-yl)benzene-1,2-disulfonamide]
- IC50 (VIM-1; VIM-1 IC50, fluorescence assay): 0.105 nM
- IC50 (IMP-1): 0.44 nM
- IC50 (NDM-1): 0.0308 nM
- P. aeruginosa expressing IMP-1, efflux + (MB9798) MITC95 [1]: 0.7813 µM
- Efflux ratio [2]: 0.50
- Serratia marcescens expressing IMP-1 (CL5741) MITC95 [3]: 0.7813 µM
- Klebsiella pneumoniae expressing VIM-1 (IHMA599644) MITC95 [4]: 3.125 µM
- Escherichia coli expressing NDM-1 (CLB30016) MITC95 [5]: 1.563 µM
- P. aeruginosa expressing IMP-1, efflux − (MB9799) MITC95 [6]: 1.563 µM

Structure (SMILES): NCCNS(=O)(=O)c1ccc(-c2cccc3[nH]nnc23)c(-c2nn[nH]n2)c1S(N)(=O)=O [Example 236]
- IC50 (VIM-1; [7]): 0.13 nM
- IC50 (IMP-1): 0.544 nM
- IC50 (NDM-1): 0.0647 nM
- P. aeruginosa expressing IMP-1, efflux + (MB9798) MITC95 [1]: 0.7813 µM
- Efflux ratio [2]: 1.00
- Serratia marcescens expressing IMP-1 (CL5741) MITC95 [3]: 0.7813 µM
- Klebsiella pneumoniae expressing VIM-1 (IHMA599644) MITC95 [4]: 1.563 µM
- Escherichia coli expressing NDM-1 (CLB30016) MITC95 [5]: 3.125 µM
- P. aeruginosa expressing IMP-1, efflux − (MB9799) MITC95 [6]: 0.7813 µM

Structure (SMILES): C[C@H](CN)NS(=O)(=O)c1ccc(-c2cccc3[nH]nnc23)c(-c2nn[nH]n2)c1S(N)(=O)=O [Example 237]
- IC50 (VIM-1; [7]): 0.0552 nM
- IC50 (IMP-1): 0.12 nM
- IC50 (NDM-1): 0.0134 nM
- P. aeruginosa expressing IMP-1, efflux + (MB9798) MITC95 [1]: 0.7813 µM
- Efflux ratio [2]: 0.50
- Serratia marcescens expressing IMP-1 (CL5741) MITC95 [3]: 1.563 µM
- Klebsiella pneumoniae expressing VIM-1 (IHMA599644) MITC95 [4]: 1.563 µM
- Escherichia coli expressing NDM-1 (CLB30016) MITC95 [5]: 3.125 µM
- P. aeruginosa expressing IMP-1, efflux − (MB9799) MITC95 [6]: 1.563 µM

Structure (SMILES): NS(=O)(=O)c1c(S(=O)(=O)N[C@@H]2CCNC2)ccc(-c2cccc3nonc23)c1-c1nn[nH]n1 [Example 238]
- IC50 (VIM-1; [7]): 0.0653 nM
- IC50 (IMP-1): 0.8 nM
- IC50 (NDM-1): 0.111 nM
- P. aeruginosa expressing IMP-1, efflux + (MB9798) MITC95 [1]: 3.125 µM
- Efflux ratio [2]: 4.00
- Serratia marcescens expressing IMP-1 (CL5741) MITC95 [3]: 0.7813 µM
- Klebsiella pneumoniae expressing VIM-1 (IHMA599644) MITC95 [4]: 1.563 µM
- Escherichia coli expressing NDM-1 (CLB30016) MITC95 [5]: 1.563 µM
- P. aeruginosa expressing IMP-1, efflux − (MB9799) MITC95 [6]: 0.7813 µM

Reference: patent US10221163B2 (priority 2015, dated 2019)
